For data set [1] the following is noted: cited from earlier work.
Data set [2] is described as follows: Maximum solubility of DHEA in lipophilic excipients (12 h stirring with excess active, filtration, HPLC). The data set is classed as physicochemical. To be noted: room temperature. The procedure: In Table 1 are various examples showing the low solubility of DHEA in a lipophilic phase:
These maximum solubilities of DHEA were measured after stirring for 12 h with a magnetic stirrer bar, at room temperature, with an excess of active ingredient in the excipient to be analyzed. The suspension is then filtered (1.2 μm) and then the filtrate is assayed by HPLC.
Above the concentration measured, there is recrystallization of the DHEA at room temperature.

As for `C[C@]12CC[C@H](O)CC1=CC[C@@H]1[C@@H]2CC[C@]2(C)C(=O)CC[C@@H]12` [DHEA, 3-beta-hydroxyandrosteron-5-en-17-one], the “maximum solubility in water” value in data set [1] is 20 µg/mL. The “Solubility (% w/w)” value in data set [2] (in Caprylic/capric triglycerides) was found to be 1.77% w/w; in data set [2] (in Cetearyl isononanoate), 0.83% w/w; in data set [2] (in Cyclomethicone) it was 0.04% w/w; in data set [2] (in Dimethicone), 0.17% w/w; in data set [2] (in Isopropyl palmitate) it was 1.37% w/w; in data set [2] (in Mineral oil), 1.00% w/w. Moreover, the “Solubility (% w/w)” value turned out to be 1.00% w/w in data set [2] (in Octyl palmitate), 1.40% w/w in data set [2] (in Sesame oil) and 0.10% w/w in data set [2] (in Squalane).

(Values after US20040219123A1, “Invert emulsions comprising DHEA” (GALDERMA RESEARCH & DEVELOPMENT, S.N.C., priority 2001, published 2004).)
